# How the values were obtained:
# [1] = tested on: HaCaTs and HDFs; test: Proliferation and migration in Transwell HaCaT/HDF co-culture by composition of mixed solution; type: cell-based, human; settings: with respect to control PBS, 24 hours
# Procedure: 5×10^4 cells/well of HaCaTs were seeded in the upper part and 1×10^4 cells/well of HDFs were seeded in the lower part of a Transwell invasion kit, […] of 10% FBS-containing DMEM and the three kinds of test solutions were treated and incubated under conditions of 37° C. and 5% CO2 for 24 hours, followed by determining an optimal concentration condition.
# [2] = tested on: human keratinocytes (HaCaTs); test: Differentiation, migration and invasion of epithelial cells under β-glucan single treatment; type: cell-based; settings: 0.5% β-glucan among 0 to 10%; FIG. 1
# Procedure: (§1) The differentiation, migration and invasion of epithelial cells, such as human keratinocytes, and the differentiation of fibroblasts according to the single treatment of β-glucan were examined. β-glucan was produced by QUEGEN BIOTECH Co., LTD and used. Human dermal fibroblasts and human keratinocytes were purchased from Korean Cell Line Bank and used. The human dermal fibroblasts (HDFs) or the human keratinocytes (HaCaTs) were seeded in a 6-well plate containing […] of 10% FBS-containing DMEM at 1×10^4 cells/well (HDF) and 5×10^4 cells/well (HaCaT), and cultured under conditions of 37° C. and 5% CO2. During culture, the concentration of the epithelial cells (HaCaTs) and the fibroblasts were treated with 200 μL of β-glucan to have a concentration of 0 to 10% in a concentration dependent manner.
# [3] = tested on: human dermal fibroblasts (HDFs); test: Differentiation of fibroblasts under β-glucan single treatment; type: cell-based; settings: β-glucan 0 to 10%; FIG. 1
# Procedure: as §1
substance,measurement,setting,value
β-glucan,Migration (%),[1]; 0.1%,110%
same,Proliferation (%),[1]; 0.1%,105%
same,Migration (%),[1]; 0.25%,130%
same,Proliferation (%),[1]; 0.25%,111%
same,Migration (%),[1]; 0.5%,151%
same,Proliferation (%),[1]; 0.5%,120%
same,Migration (%),[1]; 0.7%,153%
same,Proliferation (%),[1]; 0.7%,125%
same,Migration (%),[1]; 1.0%,161%
same,Proliferation (%),[1]; 1.0%,122%
same,Migration (%),[1]; 1.5%,110%
same,Proliferation (%),[1]; 1.5%,118%
same,"differentiation, migration and invasion of epithelial cells by concentration",[2],optimal results
same,differentiation of the fibroblasts,[3],no significant change
